ChEMBL document CHEMBL1123868, “Synthesis of a series of compounds related to betaxolol, a new beta 1-adrenoceptor antagonist with a pharmacological and pharmacokinetic profile optimized for the treatment of chronic cardiovascular diseases” (J Med Chem, 1987)
Active and inactive are the calls of the source. The rule behind the calls is not given here.

Tests used:
[1] = organism: Rattus norvegicus; test: Antihypertensive activity expressed as percentage of base-line systolic blood pressure of base-line values in spontaneously hypertensive rats (SHR) was reported after 4 hr; format: functional, Artery; also: test concentration or dose not given here
[2] = organism: Rattus norvegicus; test: Antihypertensive activity expressed as percentage of base-line systolic blood pressure of base-line values in spontaneously hypertensive rats (SHR) was reported after 2 hr; format: functional, Artery; also: test concentration or dose not given here
[3] = organism: Rattus norvegicus; test: Antihypertensive activity expressed as percentage of base-line systolic blood pressure of base-line values in spontaneously hypertensive rats (SHR) was reported after 24 hr; format: functional, Artery; also: test concentration or dose not given here
[4] = molecular target: Beta-1 adrenergic receptor (Rattus norvegicus) (UniProt P18090); test: Antagonist activity was determined against beta-1 adrenergic receptor in spontaneously beating rat atria; format: functional
Sequence of Beta-1 adrenergic receptor (Rattus norvegicus) (P18090 whole entry, looked up): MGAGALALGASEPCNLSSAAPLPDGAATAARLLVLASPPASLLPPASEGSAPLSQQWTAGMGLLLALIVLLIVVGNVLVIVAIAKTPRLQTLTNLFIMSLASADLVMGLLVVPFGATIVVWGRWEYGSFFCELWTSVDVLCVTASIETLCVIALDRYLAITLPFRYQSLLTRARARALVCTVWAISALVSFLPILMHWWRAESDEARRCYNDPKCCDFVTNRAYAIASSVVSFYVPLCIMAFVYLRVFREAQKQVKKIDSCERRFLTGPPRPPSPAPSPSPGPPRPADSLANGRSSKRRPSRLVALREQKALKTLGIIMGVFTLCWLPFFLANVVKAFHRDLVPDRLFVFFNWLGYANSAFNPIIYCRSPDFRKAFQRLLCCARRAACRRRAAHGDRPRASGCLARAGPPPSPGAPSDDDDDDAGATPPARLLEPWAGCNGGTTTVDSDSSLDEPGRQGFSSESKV

[5] = molecular target: Beta-1 adrenergic receptor (Rattus norvegicus) (UniProt P18090); details: read-out: pA2 (converted)

Row | Structure (SMILES) | Baseline systolic BP [1] | Baseline systolic BP [2] | Baseline systolic BP [3] | NA [4] | Kb [5]
1 | COCCc1ccc(OCC(O)CNC(C)C)cc1 (stereo not given) [METOPROLOL] | -2% | 4% | -12% | – | –
2 | CC(CCc1ccccc1)NCC(O)COc1ccc(CCOCC2CCC2)cc1 (stereo not given) | 1% | -1% | 2% | – | –
3 | CC(C)NCC(O)COc1ccc(CCCOCC2CCC2)cc1.O=C(O)C(=O)O (stereo not given) | -11% | -11% | -1% | – | –
4 | CC(C)NCC(O)COc1ccc(CCOCC2CC2)cc1 (stereo not given) [BETAXOLOL] | 5% | 3% | 3% | – | –
5 | CC(C)NCC(O)COc1ccc(CCOCC2CCCCC2)cc1.Cl (stereo not given) | -18% | -14% | -7% | – | –
6 | CC(C)NCC(O)COc1ccc(COCC2CC2)cc1 (stereo not given) | -3% | -4% | -6% | – | –
7 | COc1ccc(CCNCC(O)COc2ccc(CCOCC3CCC3)cc2)cc1OC.Cl (stereo not given) | -5% | -7% | -6% | – | –
8 | CC(C)NCC(O)COc1ccc(CCOC2CCCCC2)cc1 (stereo not given) | -2% | 4% | -12% | – | –
9 | CC(C)NCC(O)COc1ccc(CCOC2CCCC2)cc1 (stereo not given) | -11% | -17% | -4% | – | –
10 | CC(C)NCC(O)COc1ccc(CCOCC2CC2)cc1.Cl (stereo not given) [BETAXOLOL HYDROCHLORIDE] | -19% | -22% | -6% | – | –
11 | CC(CC#N)NCC(O)COc1ccc(CCOCC2CCC2)cc1.Cl (stereo not given) | -4% | -2% | -2% | – | –
12 | CC(CCc1ccc(F)cc1)NCC(O)COc1ccc(CCOCC2CCC2)cc1 (stereo not given) | -10% | -4% | -2% | – | –
13 | CC(C)NCC(O)COc1cccc2ccccc12 (stereo not given) [PROPRANOLOL] | 0% | 0% | -9% | – | –
14 | CC(C)NCC(O)COc1ccc(C[S+]([O-])CC2CCCC2)cc1 (stereo not given) | -7% | -5% | -1% | inactive | –
15 | CC(=O)NCCNCC(O)COc1ccc(CCOCC2CCC2)cc1.Cl (stereo not given) | -8% | -6% | -7% | – | –
16 | CC(C)NCC(O)COc1ccc(CCS(=O)(=O)CC2CCCCC2)cc1.Cl (stereo not given) | -2% | -6% | -2% | – | –
17 | CC(C)NC[C@H](O)COc1ccc(CCOCC2CC2)cc1 [LEVOBETAXOLOL] | -12% | -10% | -13% | – | –
18 | CC(C)NCC(O)COc1ccc(CCSCC2CCC2)cc1 (stereo not given) | -6% | -2% | -3% | – | –
19 | CC(C)NCC(O)COc1ccc(CCOCC2CCC2)cc1.Cl (stereo not given) | -16% | -16% | -4% | – | –
20 | CC(C)NCC(O)COc1ccc(CCS(=O)(=O)CC2CCC2)cc1.Cl (stereo not given) | -13% | -4% | 1% | – | –
21 | CC(C)NCC(O)COc1ccc(COCC2CCC2)cc1.Cl (stereo not given) | -6% | -9% | -1% | – | –
22 | CC(C)NCC(O)COc1ccc(CCOC2CCCC2)cc1.Cl (stereo not given) | -16% | -8% | -7% | – | –
23 | CC(C)NCC(O)COc1ccc(C[S+]([O-])CC2CC2)cc1 (stereo not given) | -8% | -4% | -2% | – | –
24 | CC(=O)Nc1ccc(OCC(O)CNC(C)C)cc1 (stereo not given) [PRACTOLOL] | – | – | – | – | 0.186 µM
25 | CC(C)NCC(O)COc1ccc(CCS(=O)(=O)CC2CCCO2)cc1.Cl (stereo not given) | -16% | -22% | -3% | – | –
26 | CC(C)NCC(O)COc1ccc(CCOCC2CCCC2)cc1 (stereo not given) | -16% | -21% | -8% | – | –
27 | Cl.OC(CNC1CC1)COc1ccc(CCOCC2CCC2)cc1 (stereo not given) | -5% | 0% | 0% | – | –
